Measurements: ChEMBL document CHEMBL1817617, “Novel macrocyclic C-aryl glucoside SGLT2 inhibitors as potential antidiabetic agents” (Bioorg Med Chem, 2011)

Biological target: T1, Sodium/glucose cotransporter 2 (Homo sapiens, UniProt P31639)
T1 sequence (P31639 whole entry): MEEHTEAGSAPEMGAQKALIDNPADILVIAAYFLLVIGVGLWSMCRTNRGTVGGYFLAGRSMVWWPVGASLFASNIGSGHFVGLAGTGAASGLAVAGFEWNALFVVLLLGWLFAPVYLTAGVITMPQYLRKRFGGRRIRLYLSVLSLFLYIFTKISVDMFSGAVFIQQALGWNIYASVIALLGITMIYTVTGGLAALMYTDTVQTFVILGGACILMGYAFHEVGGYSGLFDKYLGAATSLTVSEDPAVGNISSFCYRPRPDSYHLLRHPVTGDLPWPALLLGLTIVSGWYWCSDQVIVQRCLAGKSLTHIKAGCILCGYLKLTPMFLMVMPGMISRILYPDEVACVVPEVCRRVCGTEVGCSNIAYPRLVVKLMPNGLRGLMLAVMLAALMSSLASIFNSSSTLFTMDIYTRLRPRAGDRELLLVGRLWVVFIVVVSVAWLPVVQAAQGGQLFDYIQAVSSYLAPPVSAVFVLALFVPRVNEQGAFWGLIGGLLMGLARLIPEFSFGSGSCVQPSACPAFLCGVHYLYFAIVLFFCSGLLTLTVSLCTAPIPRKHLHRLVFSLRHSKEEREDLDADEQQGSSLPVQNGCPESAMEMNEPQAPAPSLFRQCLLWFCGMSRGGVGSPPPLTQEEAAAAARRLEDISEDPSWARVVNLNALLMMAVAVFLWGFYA
Experiment: Inhibition of human SGLT2 expressed in CHO cells assessed as reduction of [14C]-labeled AMG after 2 hrs by liquid scintillation counting
Type: cell-based

IC50	SMILES
2.95 nM	CCOc1ccc(Cc2cc3c(cc2Cl)OCCCOC[C@H]2O[C@@H]3[C@H](O)[C@@H](O)[C@@H]2O)cc1
1.34 nM	CCOc1ccc(Cc2cc3c(cc2Cl)OCCOC[C@H]2O[C@@H]3[C@H](O)[C@@H](O)[C@@H]2O)cc1
1.59 nM	CCc1ccc(Cc2cc3c(cc2Cl)OCCCOC[C@H]2O[C@@H]3[C@H](O)[C@@H](O)[C@@H]2O)cc1

System: Rattus norvegicus
Experiment: Antidiabetic activity in Sprague-Dawley rat assessed as induction of urinary glucose excretion per 200 gram of body weight at 1 mg/kg, po
Type: functional, Urine

SMILES	Activity
CCOc1ccc(Cc2cc([C@@H]3O[C@H](CO)[C@@H](O)[C@H](O)[C@H]3O)ccc2Cl)cc1 [DAPAGLIFLOZIN]	1648 mg
CCOc1ccc(Cc2cc3c(cc2Cl)OCCCCCOC[C@H]2O[C@@H]3[C@H](O)[C@@H](O)[C@@H]2O)cc1	226 mg
CCc1ccc(Cc2cc3c(cc2Cl)OCCCCCOC[C@H]2O[C@@H]3[C@H](O)[C@@H](O)[C@@H]2O)cc1	116 mg
